Paper PMC6911004, “Fragment-based screening identifies molecules targeting the substrate-binding ankyrin repeat domains of tankyrase” (Scientific Reports, 2019)

Experiments:
TNKS2 ARC4 = biological target: T1, TNKS2 ARC4 (Homo sapiens, UniProt Q9H2K2); test: Primary fragment screen by T2 relaxation-edited ligand-observed NMR (cocktails of four); type: binding; conditions: fragments 1 mM each, 35 μM protein
T1 construct: The cell was filled with TNKS2 ARC4 (488–649); His6-GST; made in house; host or cells: E. coli
T1 sequence (Q9H2K2 488-649): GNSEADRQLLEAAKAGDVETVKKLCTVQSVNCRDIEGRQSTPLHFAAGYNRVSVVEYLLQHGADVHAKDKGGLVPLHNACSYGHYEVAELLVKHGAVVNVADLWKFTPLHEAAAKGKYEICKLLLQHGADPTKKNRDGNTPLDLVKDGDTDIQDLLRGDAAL
From the text: The hit rate for compounds confirmed to bind TNKS2 ARC5 as evaluated by NMR was relatively low, at 0.78%, and only 0.16% for fragments binding TNKS2 ARC4 and 5 competitively with a TBM peptide. Different screening assays often identify distinct hit fragments. There is no consensus on the most appropriate assays to use for fragment screening, especially against challenging targets such as protein-protein interactions. Often several orthogonal methods are used in series to narrow down fragment hits, or a combination of biophysical and biochemical assays to exclude false positives and identify binders that modulate protein activity. We therefore carried out an additional primary screen using T2 relaxation-edited ligand-observed NMR on TNKS2 ARC4, probing a subset of molecules from the ICR fragment library that was compatible with NMR. […]
Data were processed using Bruker Topsin 3.14, then analysed using the MNova Screen software. […] The relative peak intensity change (I) was calculated by Eq. 1 for all peaks in the 5.5–9.5 ppm region, for each compound.1 I=(Iblank−Iprotein)/Iblank
The average percentage change was then calculated, and compounds designated a hit if the signal was reduced by ≥26% (2 σ). […] Protein ^1H spectra of TNKS2 ARC4 (200 μM) were measured at 24 h intervals to ensure protein stability and folding for the duration of the screening experiments.

TNKS2 ARC5 = biological target: T2, TNKS2 ARC5 (Homo sapiens, UniProt Q9H2K2); test: Differential scanning fluorimetry (DSF, thermal shift); type: binding; conditions: fragment 500 μM
T2 construct: followed by TNKS2 ARC5 (1 μL, 100 μM stock); His6-GST; made in house; host or cells: E. coli
Description: Therefore, we chose TNKS2 ARC5 for screening by DSF, anticipating the largest signal window for measuring changes in Tm upon fragment binding.
We screened 1869 compounds in duplicate at a concentration of 500 μM, which we considered a reasonable compromise between having a sufficiently high concentration to identify weak binders while minimising the likelihood of false positives through fragment precipitation/aggregation and non-specific binding. The final DMSO concentration was 5%. We calculated melting temperatures using both the inflection point and the maximum peak of first derivative data methods. Both methods generally agreed, unless the melt curve was biphasic or misshapen, with slightly lower variability for the […] Tm determination method (see Materials and Methods for experimental and analysis details).
We determined the melting temperature for the unbound ARC (Tm, 0) from the mean of 12 reference melting curves per plate, with 5% DMSO only. We calculated the change in melting temperature (ΔTm) by subtracting the mean Tm, 0 from Tm, compound. We tested compounds in duplicate, defining fragments as hits if they conferred a ΔTm outside two standard deviations (2σ) from the mean, in one or both replicates. To check for consistency between plates, we ran triplicate peptide controls; however, we excluded peptide ΔTm values from the calculation of the mean ΔTm to avoid skewing the results. We observed mean ΔTm values (IP/1st derivative methods) of −0.127/−0.331 °C and σ as 0.997/1.19 °C. A hit cut-off of 2σ gave absolute shifts of +1.87/+2.05 °C for compounds that stabilised and −2.13/−2.71 °C for compounds that destabilised the ARC (Fig. 2B).
For the screen, a C1000 thermal cycler (Bio-Rad) was used to record melt curves. SYPRO Orange was purchased as a 5000 × stock in DMSO from Sigma Aldrich. The ICR fragment library was available as 100 mM stocks in DMSO, and dispensed (25 nL) using an ECHO acoustic liquid handling system into white 384-well PCR plates (Framestar, 4titude). Wells were backfilled with DMSO (225 nL). Buffer (2.75 μL, 25 mM HEPES-NaOH pH 7.5, 100 mM NaCl, 2 mM TCEP) was added, followed by TNKS2 ARC5 (1 μL, 100 μM stock) and then SYPRO orange dye (1 μL, 25×). The plate was centrifuged after the addition of each reagent (1 min, 1000 × g). Final assay concentrations were as follows: TNKS2 ARC5 (20 μM); fragment (500 μM); SYPRO Orange dye (5×); DMSO (5% v/v) in a total volume of 5 μL. Peptide control wells (3BP2 TBM 16-mer, 200 μM, sequence LPHLQRSPPDGQSFRSW with C-terminal tryptophan added for photometric concentration measurements, the N-terminus acetylated and the C-terminus amide-capped) were plated in triplicate, and there were 12 blank wells per plate, with DMSO only (250 nL, 5% v/v). Melt curves were recorded from 20–95 °C, with the temperature ramped by 0.5 °C every 15 s. Data were analysed using Vortex (Dotmatics) software and melting temperatures calculated from both the inflection point and the maximum peak of 1st-derivative data. Data points were excluded if the melt curve was poor, i.e., if there was no fluorescence signal above baseline, high fluorescence intensity throughout, or if the melt curve was shallow (<1000 rfu difference between baseline and peak maximum). The unbound melting temperature was determined from the mean of 12 reference melting curves, with 5% DMSO only. The change in melting temperature (ΔTm) was calculated by subtracting the mean Tm, 0 from Tm, compound. Compounds were tested in duplicate, and fragments were defined as hits if they gave a ΔTm outwith 2 σ from the mean in one or both replicates.
For the experiment shown in Fig. 2A, ARC and 3BP2 TBM peptide concentrations were 20 and 200 μM, respectively, in 50 mM HEPES-NaOH pH 7.5, 100 mM NaCl, 2 mM TCEP and a total volume of 25 μL. SYPRO Orange was added at 5×. Data were recorded from 4–95 °C, with the temperature ramped by 0.5 °C every 15 s, using a CFX384 thermal cycler (Bio-Rad). […]

T2 sequence (Q9H2K2 641-800): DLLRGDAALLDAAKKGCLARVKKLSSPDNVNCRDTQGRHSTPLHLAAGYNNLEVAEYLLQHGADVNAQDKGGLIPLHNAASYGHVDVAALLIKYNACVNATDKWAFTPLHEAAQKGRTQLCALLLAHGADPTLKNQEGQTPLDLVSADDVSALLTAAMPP

Row | hit in NMR primary screen (TNKS2 ARC4) | hit in DSF primary screen (TNKS2 ARC5) | Compound
1 | hits | hits | CCOc1cccc(-c2cc(N)[nH]n2)c1 [compound 6]
2 | hits | hits | Nc1nc(Nc2ccccc2)nc2ccccc12 [compound 7]
